According to patent US12161686B2, “Natural preservatives and antimicrobial agents, including compositions thereof” (Unigen, Inc., priority 2015, dated 2024):

Experiments:
Format in all cases: cell-based
[1] = test system: Escherichia coli (ATCC 8739); assay: Minimum Inhibitory Concentration Method (MIC/MBC), broth dilution
Experimental: (§1) Minimum Inhibitory Concentration against bacterial S. aureus, P. aeruginosa, E. coli, and fungi A. brasiliensis and C. albicans were determined for Albizia amara seeds extract and the active marker compound bundmunchiamine C. The Minimum Inhibitory Concentration Method (MIC) is carried out following the general microbiological protocol to measure the lowest level of an antimicrobial agent that can inhibit microbial proliferation in liquid. Test microorganisms are prepared in liquid culture medium for bacteria or on agar for fungi. Suspensions of test microorganisms are standardized by dilution in appropriate broth solution, usually Mueller-Hinton broth. The test substance is prepared by conducting several serial 1:1 dilutions in a 96-well microtiter plate or in small test tubes, through Mueller-Hinton broth or other appropriate medium. All wells or tubes containing diluted test substances are inoculated with test microorganisms, individually, resulting in one additional and final dilution of the product in all test vessels. The microtiter plate or test tubes are incubated for 18-24 hours. After the incubation period, observations are made to determine the minimum concentration (MIC) which is the lowest concentration of test substance in a well where no turbidity (indicative of test microorganism growth) is observed and minimum bactericidal concentration (MBC).
(§2) The Albizia amara seeds extract RN368-31-MIX and budmunchiamine C were tested against five microorganisms required for category 2 including Staphylococcus aureus (ATCC 6538), Escherichia coli (ATCC 8739), Pseudomonas aeruginosa (ATCC 9027), Candida albicans (ATCC 10231), Aspergillus brasiliensis (ATCC 16404).

[2] = test system: Pseudomonas aeruginosa (ATCC 9027); assay: as above
Experimental: as §1, §2

[3] = test system: Staphylococcus aureus (ATCC 6538); assay: as above
Experimental: as §1, §2

Streptococcus pyogenes = assay: Minimum Inhibitory Concentration Method (MIC/MBC)
[4] = test system: Candida albicans (ATCC 10231); assay: Minimum Inhibitory Concentration Method (MIC/MBC), broth dilution; FIC index
Experimental: (§3) Minimum Inhibitory Concentration against bacterial S. aureus, P. aeruginosa, E. coli, and fungi A. brasiliensis and C. albicans were determined for Albizia amara seeds extract and the active marker compound bundmunchiamine C. The Minimum Inhibitory Concentration Method (MIC) is carried out following the general microbiological protocol to measure the lowest level of an antimicrobial agent that can inhibit microbial proliferation in liquid. Test microorganisms are prepared in liquid culture medium for bacteria or on agar for fungi. Suspensions of test microorganisms are standardized by dilution in appropriate broth solution, usually Mueller-Hinton broth. […]
(§4) In vitro antifungal combinations are commonly evaluated on the basis of the fractional inhibitory concentration (FIC) index, which represents the sum of the FIC of each substance tested. […]
(§5) The fractional inhibitory concentration (FIC) was calculated with the equation: FIC of drug A (FIC A)=MIC of drug A in combination/MIC of drug A alone, and FIC of drug B (FIC B)=MIC of drug B in combination/MIC of drug B alone]. The FIC Index (FICI), calculated as the sum of each FIC (YFIC). The calculated index of 1A:1M and 1A:3M against C. albicans were 0.187 and 0.292. […]

[5] = test system: Aspergillus brasiliensis (ATCC 16404); assay: as above
Experimental: as §3, §4, §5

budmunchiamine C
MBC Escherichia coli [1]: 31.25 µg/mL | MIC Escherichia coli ([1]; neutral condition): 31.25 µg/mL | MBC Pseudomonas aeruginosa [2]: 62.5 µg/mL | MIC Pseudomonas aeruginosa [2]: 62.5 µg/mL | MBC Staphylococcus aureus [3]: 31.25 µg/mL | MIC Staphylococcus aureus [3]: 31.25 µg/mL | MIC Streptococcus pyogenes (Streptococcus pyogenes): < 0.97 µg/mL | MBC Candida albicans [4]: 125 µg/mL | MIC Aspergillus brasiliensis [5]: 125 µg/mL
